One test addresses T1, NEP (Rattus norvegicus, UniProt P07861).
T1 sequence (P07861 1-750): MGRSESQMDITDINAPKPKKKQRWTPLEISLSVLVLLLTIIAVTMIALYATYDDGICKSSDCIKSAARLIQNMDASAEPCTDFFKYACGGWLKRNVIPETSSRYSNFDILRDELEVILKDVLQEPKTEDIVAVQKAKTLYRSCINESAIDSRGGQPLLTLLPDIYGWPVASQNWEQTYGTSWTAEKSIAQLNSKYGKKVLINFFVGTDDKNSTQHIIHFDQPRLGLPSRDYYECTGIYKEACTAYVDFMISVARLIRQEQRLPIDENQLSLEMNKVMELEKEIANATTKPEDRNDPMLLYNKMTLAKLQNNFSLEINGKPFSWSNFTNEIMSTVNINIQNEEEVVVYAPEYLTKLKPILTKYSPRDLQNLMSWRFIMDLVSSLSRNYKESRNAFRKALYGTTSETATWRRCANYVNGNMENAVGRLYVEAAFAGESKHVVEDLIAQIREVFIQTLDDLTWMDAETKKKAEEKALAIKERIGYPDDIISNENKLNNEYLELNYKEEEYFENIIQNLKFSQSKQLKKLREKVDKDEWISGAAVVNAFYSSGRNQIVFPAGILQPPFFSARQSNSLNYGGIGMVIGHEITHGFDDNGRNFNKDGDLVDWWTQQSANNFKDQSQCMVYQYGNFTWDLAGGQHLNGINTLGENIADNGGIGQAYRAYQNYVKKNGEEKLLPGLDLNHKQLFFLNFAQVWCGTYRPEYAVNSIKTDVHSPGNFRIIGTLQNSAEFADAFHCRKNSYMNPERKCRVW
In words: Ex vivo NEP-inhibitory activity in kidney homogenates of treated SHR (GAAP substrate). Also noted: After the removal of the kidneys from SHR, the renal tissue was homogenized; from tissue; host or cells: kidney homogenate of spontaneously hypertensive rats (SHR); species or system spontaneously hypertensive rats (SHR). The settings on record: oral 30 µmoles/kg; for inhibition at 30 µmol/kg: rat, SHR kidneys. The protocol:
(§1) The ex-vivo ACE/NEP-inhibitory activity, in particular, was determined by evaluating the enzymatic activity in tissue homogenates (lung and kidney for ACE and NEP activity, respectively) from spontaneously hypertensive rats (SHR) treated with the tested compounds by intravenous or oral route.
The ex vivo NEP-inhibitory activity was evaluated according to the procedure reported in the literature by M. Orlowsky et al., in Biochemistry 1981, 20, 4942-4950.
The inhibitory activity of the compounds of formula I was evaluated in kidneys of spontaneously hypertensive rats (SHR), 5 minutes after i.v. injection (0.6 and 21 µmoles/kg) and 30 minutes, 60 minutes and 4 hours after oral administration (30 µmoles/kg) of the tested compounds.
After the removal of the kidneys from SHR, the renal tissue was homogenized and incubated for 15 minutes at 37°C in the presence of Glutaryl-Ala-Ala-Phe-2-naphthylamide (GAAP), as a substrate, and aminopeptidase M at pH 7.6.
The reaction was stopped by adding an aqueous solution at 10% of trichloroacetic acid.
The released 2-naphthylamine was determined by adding fast garnet dye (2 ml).
Enzyme reaction rates were determined by measuring the increase in the optical density at 524 nm (OD524) with respect to a standard obtained with 2-naphthylamine complexed with fast garnet.
The NEP-inhibitory activity of the tested compounds was expressed as percentage of NEP-inhibition in SHR kidneys.

For the next test, the target named is T2, ACE (Rattus norvegicus, UniProt P47820).
T2 construct: After the removal of the lungs from SHR, the lung tissue was homogenized; from tissue; host or cells: lung homogenate of spontaneously hypertensive rats (SHR)
T2 sequence (P47820 36-1313): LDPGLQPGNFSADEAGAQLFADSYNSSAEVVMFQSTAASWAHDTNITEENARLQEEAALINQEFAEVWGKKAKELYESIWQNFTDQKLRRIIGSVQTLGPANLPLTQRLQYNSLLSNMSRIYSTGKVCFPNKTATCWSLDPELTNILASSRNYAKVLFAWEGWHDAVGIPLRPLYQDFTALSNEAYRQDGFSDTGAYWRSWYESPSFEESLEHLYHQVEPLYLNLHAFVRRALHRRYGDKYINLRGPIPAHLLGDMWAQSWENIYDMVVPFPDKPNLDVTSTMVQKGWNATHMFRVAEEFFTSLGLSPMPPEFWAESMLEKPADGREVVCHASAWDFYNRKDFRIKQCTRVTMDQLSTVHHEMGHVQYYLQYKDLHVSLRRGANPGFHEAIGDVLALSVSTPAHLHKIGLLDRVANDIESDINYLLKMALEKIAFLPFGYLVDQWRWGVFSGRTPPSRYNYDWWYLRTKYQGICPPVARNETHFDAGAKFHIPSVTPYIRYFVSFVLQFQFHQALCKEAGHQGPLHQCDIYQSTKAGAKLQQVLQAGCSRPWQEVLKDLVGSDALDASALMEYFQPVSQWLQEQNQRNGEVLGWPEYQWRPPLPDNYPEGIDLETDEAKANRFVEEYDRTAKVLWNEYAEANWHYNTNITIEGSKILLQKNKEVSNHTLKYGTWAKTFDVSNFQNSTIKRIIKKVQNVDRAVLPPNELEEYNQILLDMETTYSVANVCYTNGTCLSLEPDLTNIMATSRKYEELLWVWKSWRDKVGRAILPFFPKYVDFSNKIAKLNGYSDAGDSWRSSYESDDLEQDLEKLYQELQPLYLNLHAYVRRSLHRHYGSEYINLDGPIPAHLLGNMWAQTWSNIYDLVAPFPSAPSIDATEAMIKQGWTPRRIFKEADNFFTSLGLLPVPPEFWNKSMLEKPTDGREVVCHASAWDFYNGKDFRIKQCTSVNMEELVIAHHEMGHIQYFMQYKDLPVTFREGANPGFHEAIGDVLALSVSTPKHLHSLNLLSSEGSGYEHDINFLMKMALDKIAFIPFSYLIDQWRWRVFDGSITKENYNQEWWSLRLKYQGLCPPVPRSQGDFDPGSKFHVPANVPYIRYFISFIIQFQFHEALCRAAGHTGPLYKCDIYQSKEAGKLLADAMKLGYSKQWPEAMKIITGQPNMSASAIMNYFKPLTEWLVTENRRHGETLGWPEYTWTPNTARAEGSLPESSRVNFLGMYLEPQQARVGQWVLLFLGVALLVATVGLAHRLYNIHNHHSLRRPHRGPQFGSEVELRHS
In words: Ex vivo ACE-inhibitory activity in lung homogenates of treated SHR (radiometric, [3H]Hyp-Gly-Gly). Also noted: species or system spontaneously hypertensive rats (SHR). The settings on record: SHR lungs, oral 30 µmoles/kg. The protocol: as §1
The ex vivo ACE-inhibitory activity was evaluated by using a radiometric assay method, as reported in the literature by J. W. Ryan et al. in Biochem. J. (1977), 167, 501-504.
The inhibitory activity of the compounds of formula I was evaluated in lungs of spontaneously hypertensive rats (SHR), 5 minutes after i.v. injection (0.6 and 21 µmoles/kg) and 30 minutes, 60 minutes and 4 hours after oral administration (30 µmoles/kg) of the tested compounds.
After the removal of the lungs from SHR, the lung tissue was homogenized and incubated for 2 hours at 37°C in the presence of [^3H]Hyp-Gly-Gly, as a substrate.
The reaction was stopped by adding hydrochloric acid.
The released radiolabelled hyppuric acid was extracted with ethyl acetate and counted by liquid scintillation spectrometry, according to conventional methods.
The ACE-inhibitory activity of the tested compounds was expressed as percentage of ACE-inhibition in SHR lungs.

Setting [1] is: 30 minutes after administration, read-out: NEP-inhibition (kidneys) 30 minutes.
[2] abbreviates: 30 minutes after administration, read-out: ACE-inhibition (lungs) 30 minutes.
The mark [3] stands for this setting: 4 hours after administration, read-out: ACE-inhibition (lungs) 4 hours.

One may read the inhibition as the percentage by which the read-out fell short of the control.

Like-named read-outs stand apart in the source and are kept apart here.

Take `O=C(N[C@@H](Cc1ccc(O)cc1)C(=O)O)C(CS)Cc1ccc2c(c1)OCO2` (stereo partly drawn) [Compound R-2, N-[3-mercapto-2-(3,4-methylenedioxyphenyl)methyl-propionyl)-(S)-tyrosine]: the “NEP-inhibition (kidneys) 4 hours” value on NEP (4 hours after administration) is reported as “not active”. Moreover, the inhibition at 30 µmol/kg at NEP (setting [1]) is 30%; on ACE (setting [2]), 30%; on ACE (setting [3]) it was 25%.
In the case of `CC(CS)C(=O)N[C@@H](Cc1c[nH]c2ccccc12)C(=O)O` (stereo partly drawn) [Compound R-4, N-(3-mercapto-2-methylpropanoyl)-L-triptophan], the “NEP-inhibition (kidneys) 30 minutes” value at NEP (30 minutes after administration) is given as “not active”. Also, the “NEP-inhibition (kidneys) 4 hours” value on NEP (4 hours after administration) is “not active”. For the same compound, the inhibition at 30 µmol/kg at ACE (setting [2]) is 25%; on ACE (setting [3]), 10%.
Take `O=C(N[C@@H](Cc1ccccc1)C(=O)O)C(CS)Cc1ccc2c(c1)OCO2` (stereo partly drawn) [Compound R-1, N-[3-mercapto-2-(3,4-methylenedioxyphenyl)methyl-propionyl]-(S)-phenylalanine]: at NEP (4 hours after administration), the “NEP-inhibition (kidneys) 4 hours” value is listed as “not active”. Moreover, the inhibition at 30 µmol/kg on NEP (setting [1]) was 5%; at ACE (setting [2]) it was 25%; at ACE (setting [3]) it was 20%.
Turning to `CC(CS)C(=O)N[C@@H](Cc1ccc(O)cc1)C(=O)O` (stereo partly drawn) [Compound R-3, N-(3-mercapto-2-methylpropanoyl)-L-tyrosine], the inhibition at 30 µmol/kg at NEP (setting [1]) was found to be 10%; on NEP (4 hours after administration, read-out: NEP-inhibition (kidneys) 4 hours) it was 5%; at ACE (setting [2]), 25%; on ACE (setting [3]), 20%.

The record behind these values is patent EP0877740B1, “THIOL DERIVATIVES WITH METALLOPEPTIDASE INHIBITORY ACTIVITY” (ZAMBON GROUP S.p.A., priority 1995, dated 1997).
